Source: the NIST ThermoML archive (doi:10.1016/j.jct.2012.02.007)
Numbers after ± are expanded uncertainties.

Legend:
[1] = mn = molality of the nth substance listed, in mol/kg; conditions: 101.3 kPa, Liquid; for speed of sound: Sing-around technique in a fixed-path interferometer; for mass density: Vibrating tube method
[2] = osmotic coefficient (dimensionless); mn = molality of the nth substance listed, in mol/kg; conditions: 323.15 K, Liquid, Vapor Pressure Osmometer

CCCCn1cc[n+](C)c1.N#CN=C=[N-] [1-butyl-3-methylimidazolium dicyanamide] + CCCCO
[1]
Conditions	mass density, 293.15 K [kg/m3]	mass density, 308.15 K [kg/m3]	mass density, 323.15 K [kg/m3]	speed of sound, 293.15 K [m/s]	speed of sound, 308.15 K [m/s]	speed of sound, 323.15 K [m/s]
m1 = 0.0564	812.2 ± 0.12	800.77 ± 0.12	788.99 ± 0.12	1261.4 ± 0.9	1211.3 ± 0.8	1161.9 ± 0.8
m1 = 0.1049	814.3 ± 0.12	802.91 ± 0.12	791.18 ± 0.12	1264.8 ± 0.9	1214.9 ± 0.8	1165.8 ± 0.8
m1 = 0.156	816.47 ± 0.12	805.11 ± 0.12	793.43 ± 0.12	1268.3 ± 0.9	1218.6 ± 0.8	1169.6 ± 0.8
m1 = 0.204	818.49 ± 0.12	807.15 ± 0.12	795.51 ± 0.12	1271.7 ± 0.9	1222 ± 0.9	1173.1 ± 0.8
m1 = 0.2581	820.7 ± 0.12	809.41 ± 0.12	797.8 ± 0.12	1275.2 ± 0.9	1225.8 ± 0.9	1177.1 ± 0.8
m1 = 0.5068	830.31 ± 0.12	819.12 ± 0.12	807.68 ± 0.12	1290.3 ± 0.9	1241.6 ± 0.9	1193.7 ± 0.9
m1 = 0.7637	839.41 ± 0.12	828.32 ± 0.12	817.01 ± 0.13	1304.9 ± 0.9	1256.7 ± 0.9	1209.3 ± 0.9
m1 = 1.006	847.36 ± 0.12	836.34 ± 0.13	825.14 ± 0.13	1317.6 ± 1	1270 ± 0.9	1223.2 ± 0.9
m1 = 1.271	855.38 ± 0.13	844.45 ± 0.13	833.35 ± 0.13	1330.6 ± 1	1283.5 ± 1	1237.4 ± 1
m1 = 1.516	862.28 ± 0.13	851.41 ± 0.14	840.4 ± 0.14	1341.9 ± 1	1295.3 ± 1	1249.7 ± 1
m1 = 1.766	868.85 ± 0.14	858.05 ± 0.14	847.12 ± 0.14	1352.9 ± 1.1	1306.7 ± 1	1261.6 ± 1
m1 = 2.004	874.76 ± 0.15	864.01 ± 0.15	853.15 ± 0.15	1362.9 ± 1.1	1317.1 ± 1.1	1272.3 ± 1.1
m1 = 2.509	886.17 ± 0.16	875.53 ± 0.16	864.81 ± 0.17	1382.3 ± 1.1	1337.5 ± 1.1	1293.4 ± 1.1
m1 = 2.993	895.87 ± 0.18	885.33 ± 0.18	874.72 ± 0.18	1399.5 ± 1.2	1355.1 ± 1.2	1311.7 ± 1.2
m1 = 3.535	905.44 ± 0.2	895.01 ± 0.2	884.51 ± 0.2	1416.7 ± 1.3	1373 ± 1.3	1330.2 ± 1.2

[2]
Conditions	osmotic coefficient
m1 = 0.0803	0.739 ± 0.015
m1 = 0.1014	0.707 ± 0.016
m1 = 0.2018	0.653 ± 0.017
m1 = 0.31	0.625 ± 0.018
m1 = 0.4166	0.604 ± 0.018
m1 = 0.5175	0.594 ± 0.019
m1 = 0.8182	0.585 ± 0.019
m1 = 1.221	0.564 ± 0.02
m1 = 1.633	0.551 ± 0.02
m1 = 2.026	0.536 ± 0.02
m1 = 2.413	0.528 ± 0.021
m1 = 2.82	0.522 ± 0.021
m1 = 3.306	0.508 ± 0.021
